Experimental data: patent publication US7964594B1, “Amino oxazine derivatives” (Hoffmann-La Roche Inc., priority 2009, dated 2011)

molecular target: T1, BACE2 (Rattus norvegicus, UniProt Q6IE75); test: Assay for BACE inhibition by measuring cellular TMEM27 cleavage (INS-TMEM27 cells, ELISA of shed TMEM27); type: cell-based; details: inhibition of human TMEM27 cleavage by endogenous cellular BACE2 in Ins1e rat cell line; ELISA of culture medium
T1 construct: endogenous cellular BACE2 in the Ins1e rat cell line; endogenous in cells; host or cells: INS-TMEM27 (INS1e-derived rat insulinoma cell line with doxycycline-inducible full-length hTMEM27)
T1 sequence (Q6IE75 63-514): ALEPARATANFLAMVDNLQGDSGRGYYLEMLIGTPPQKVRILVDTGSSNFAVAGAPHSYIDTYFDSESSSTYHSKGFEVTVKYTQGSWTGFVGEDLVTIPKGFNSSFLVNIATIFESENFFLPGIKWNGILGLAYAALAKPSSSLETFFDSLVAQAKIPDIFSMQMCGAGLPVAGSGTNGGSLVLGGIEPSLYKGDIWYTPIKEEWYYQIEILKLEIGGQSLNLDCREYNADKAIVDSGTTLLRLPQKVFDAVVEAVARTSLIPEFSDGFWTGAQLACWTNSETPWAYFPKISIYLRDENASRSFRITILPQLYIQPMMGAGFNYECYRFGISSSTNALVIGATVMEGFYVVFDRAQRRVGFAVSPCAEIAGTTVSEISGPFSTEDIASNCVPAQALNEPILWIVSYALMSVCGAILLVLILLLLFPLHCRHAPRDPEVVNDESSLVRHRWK
Text: Assay for BACE Inhibition by Measuring Cellular TMEM27 Cleavage
The assay uses the principle of inhibition of human TMEM27 cleavage by endogenous cellular BACE2 in the Ins1e rat cell line and shedding from the cell surface into the culture medium, followed by detection in an ELISA assay. Inhibition of BACE2 prevents the cleavage and shedding in a dose-dependent manner.
The stable cell line “INS-TMEM27” represents an INS1e-derived cell line with inducible expression (using the TetOn system) of full-length hTMEM27 in a doxycycline-dependent manner. The cells were cultured throughout the experiment in RPMI1640+Glutamax (Invitrogen) Penicillin/Streptomycin, 10% Fetal bovine serum, […], […], 100 micrograms/ml G418 and 100 microgram/ml hygromycin and were grown in adherent culture at 37° C. in a standard CO2 cell culture incubator.
INS-TMEM27 cells were seeded in 96-well plates. After 2 days in culture, BACE2 inhibitor was added in a range of concentrations as required by the assay and after a further two hours, doxycycline was added to a final concentration of 500 ng/ml. The cells were incubated for a further 46 hours and the supernatant harvested for detection of shed TMEM27.
An ELISA assay (using a pair of mouse anti-human-TMEM27 antibodies, raised against the extracellular domain of TMEM27) was used for detection of TMEM27 in the culture medium. An IC50 for BACE2 inhibition was calculated using the ELISA readout for each inhibitor concentration with standard curve-fitting software XLfit (IDBS) for the Excel spreadsheet program.

Row | IC50 [nM] | Structure (SMILES)
1 | 3 | Cn1ccc(C(=O)Nc2ccc(F)c([C@]3(C)CCOC(N)=N3)c2)n1 [Example 29]
2 | 60 | NC1=N[C@@]2(c3cc(NC(=O)c4ccc(Cl)cn4)ccc3F)COC[C@H]2CO1 [Example 65, 5-Chloro-pyridine-2-carboxylic acid [3-((4aS,7aS)-2-amino-4a,5-dihydro-4H-furo[3,4-d][1,3]oxazin-7a-yl)-4-fluoro-phenyl]-amide]
3 | 1 | Cc1cc(Cl)cnc1C(=O)Nc1ccc(F)c([C@]2(C)CCOC(N)=N2)c1 [Example 26, 5-Chloro-3-methyl-pyridine-2-carboxylic acid [3-((S)-2-amino-4-methyl-5,6-dihydro-4H-[1,3]oxazin-4-yl)-4-fluoro-phenyl]-amide]
4 | 9130 | CC1(C(=O)Nc2ccc(F)c([C@]3(C)CCOC(N)=N3)c2)COC1 [Example 62, 3-Methyl-oxetane-3-carboxylic acid [3-((S)-2-amino-4-methyl-5,6-dihydro-4H-[1,3]oxazin-4-yl)-4-fluoro-phenyl]-amide]
5 | 28 | C[C@@]1(c2cc(NC(=O)c3nccc4ccsc34)ccc2F)CCOC(N)=N1 [Example 11, Thieno[2,3-c]pyridine-7-carboxylic acid [3-((S)-2-amino-4-methyl-5,6-dihydro-4H-[1,3]oxazin-4-yl)-4-fluoro-phenyl]-amide]
6 | 464 | C[C@@]1(c2cc(NC(=O)c3n[nH]cc3Cl)ccc2F)CCOC(N)=N1 [Example 64]
7 | 11 | C[C@@]1(c2cc(NC(=O)c3ncc(F)cc3Cl)ccc2F)CCOC(N)=N1 [Example 35]
8 | 143 | C[C@@]1(c2cc(NC(=O)c3ncccc3OCC(F)(F)F)ccc2F)CCOC(N)=N1 [Example 60, (S)—N-(3-(2-Amino-4-methyl-5,6-dihydro-4H-1,3-oxazin-4-yl)-4-fluorophenyl)-3-(2,2,2-trifluoroethoxy)picolinamide]
9 | 4.5 | Cc1ccc(C(=O)Nc2ccc(F)c([C@]3(C)CCOC(N)=N3)c2)nc1 [Example 15]
10 | 52 | C[C@@]1(c2cc(NC(=O)c3cc4ccccc4s3)ccc2F)CCOC(N)=N1 [Example 13, Benzo[b]thiophene-2-carboxylic acid [3-((S)-2-amino-4-methyl-5,6-dihydro-4H-[1,3]oxazin-4-yl)-4-fluoro-phenyl]-amide]
11 | 11 | Cc1ccc(C(=O)Nc2ccc(F)c([C@]3(C)CCOC(N)=N3)c2)s1 [Example 17, 5-Methyl-thiophene-2-carboxylic acid [3-((S)-2-amino-4-methyl-5,6-dihydro-4H-[1,3]oxazin-4-yl)-4-fluoro-phenyl]-amide]
12 | 400 | C[C@@]1(c2cc(NC(=O)C(F)C(F)(F)F)ccc2F)CCOC(N)=N1 (stereo partly drawn) [Example 45, N-[3-((S)-2-Amino-4-methyl-5,6-dihydro-4H-[1,3]oxazin-4-yl)-4-fluoro-phenyl]-2,3,3,3-tetrafluoro-propionamide]
13 | 23 | COc1cccnc1C(=O)Nc1ccc(F)c([C@]2(C)CCOC(N)=N2)c1 [Example 27, 3-Methoxy-pyridine-2-carboxylic acid [3-((S)-2-amino-4-methyl-5,6-dihydro-4H-[1,3]oxazin-4-yl)-4-fluoro-phenyl]-amide]
14 | 4 | C[C@@]1(c2cc(NC(=O)c3cccc(Cl)n3)ccc2F)CCOC(N)=N1 [Example 32, 6-Chloro-pyridine-2-carboxylic acid [3-((S)-2-amino-4-methyl-5,6-dihydro-4H-[1,3]oxazin-4-yl)-4-fluoro-phenyl]-amide]
15 | 9 | CC[C@@]1(c2cc(NC(=O)c3ncc(Cl)cc3C)ccc2F)CCOC(N)=N1 [Example 23]
16 | 4 | C[C@@]1(c2cc(NC(=O)c3ncc(Cl)cc3Cl)ccc2F)CCOC(N)=N1 [Example 1, 3,5-Dichloro-pyridine-2-carboxylic acid [3-((S)-2-amino-4-methyl-5,6-dihydro-4H-[1,3]oxazin-4-yl)-4-fluoro-phenyl]-amide]
17 | 11 | C[C@@]1(c2cc(NC(=O)c3ncc(C(F)(F)F)cc3Cl)ccc2F)CCOC(N)=N1 [Example 31, 3-Chloro-5-trifluoromethyl-pyridine-2-carboxylic acid [3-((S)-2-amino-4-methyl-5,6-dihydro-4H-[1,3]oxazin-4-yl)-4-fluoro-phenyl]-amide]
18 | 143 | C[C@@]1(c2cc(NC(=O)c3cc(Cl)ccn3)ccc2F)CCOC(N)=N1 [Example 9]

Row | IC50 [nM] | Structure (SMILES)
19 | 48 | CC[C@@]1(c2cc(NC(=O)c3ccc(C)s3)ccc2F)CCOC(N)=N1 [Example 20]
20 | 14 | C[C@]1(c2cc(NC(=O)c3ncc(F)cc3F)ccc2F)N=C(N)OCC12CC2 [Example 49, (S)—N-(3-(6-Amino-8-methyl-5-oxa-7-azaspiro[2.5]oct-6-en-8-yl)-4-fluorophenyl)-3,5-difluoropicolinamide]
21 | 915 | C[C@@]1(c2cc(NC(=O)c3ccc(Cl)s3)ccc2F)CCOC(N)=N1 [Example 10, 5-Chloro-thiophene-2-carboxylic acid [3-((S)-2-amino-4-methyl-5,6-dihydro-4H-[1,3]oxazin-4-yl)-4-fluoro-phenyl]-amide]
22 | 350 | Cc1ccsc1C(=O)Nc1ccc(F)c([C@]2(C)CCOC(N)=N2)c1 [Example 34]
23 | 340 | C[C@@]1(c2cc(NC(=O)c3ccc(F)s3)ccc2F)CCOC(N)=N1 [Example 7, 5-Fluoro-thiophene-2-carboxylic acid [3-((S)-2-amino-4-methyl-5,6-dihydro-4H-[1,3]oxazin-4-yl)-4-fluoro-phenyl]-amide]
24 | 190 | C[C@]1(c2cc(NC(=O)c3ncc(C(F)(F)F)cc3Cl)ccc2F)N=C(N)OCC12CC2 [Example 50, (S)—N-(3-(6-Amino-8-methyl-5-oxa-7-azaspiro[2.5]oct-6-en-8-yl)-4-fluorophenyl)-3-chloro-5-(trifluoromethyl)picolinamide]
25 | 6 | C[C@@]1(c2cc(NC(=O)c3ccc(F)cn3)ccc2F)CCOC(N)=N1 [Example 3, 5-Fluoro-pyridine-2-carboxylic acid [3-((S)-2-amino-4-methyl-5,6-dihydro-4H-[1,3]oxazin-4-yl)-4-fluoro-phenyl]-amide]
26 | 474 | C[C@@]1(c2cc(NC(=O)c3ccc(OC(F)F)cn3)ccc2F)CCOC(N)=N1 [Example 61, 5-Difluoromethoxy-pyridine-2-carboxylic acid [3-((S)-2-amino-4-methyl-5,6-dihydro-4H-[1,3]oxazin-4-yl)-4-fluoro-phenyl]-amide]
27 | 19 | Cc1nc(C(=O)Nc2ccc(F)c([C@]3(C)CCOC(N)=N3)c2)co1 [Example 8]
28 | 40 | C[C@]1(c2cc(NC(=O)c3ncccc3F)ccc2F)N=C(N)OCC12CC2 [Example 37, 3-Fluoro-pyridine-2-carboxylic acid [3-((S)-6-amino-8-methyl-5-oxa-7-aza-spiro[2.5]oct-6-en-8-yl)-4-fluoro-phenyl]-amide]
29 | 4 | Cc1nc(C(=O)Nc2ccc(F)c([C@]3(C)CCOC(N)=N3)c2)cs1 [Example 28]
30 | 16 | C[C@]1(c2cc(NC(=O)c3ccc(Cl)cn3)ccc2F)N=C(N)OCC12CC2 [Example 36, 5-Chloro-pyridine-2-carboxylic acid [3-((S)-6-amino-8-methyl-5-oxa-7-aza-spiro[2.5]oct-6-en-8-yl)-4-fluoro-phenyl]-amide]
31 | 1 | CC[C@@]1(c2cc(NC(=O)c3coc(C)n3)ccc2F)CCOC(N)=N1 [Example 24]
32 | 18 | C[C@]1(c2cc(NC(=O)c3ccccn3)ccc2F)N=C(N)OCC12CC2 [Example 43, Pyridine-2-carboxylic acid [3-((S)-6-amino-8-methyl-5-oxa-7-aza-spiro[2.5]oct-6-en-8-yl)-4-fluoro-phenyl]-amide]
33 | 7.1 | C[C@]1(c2cc(NC(=O)c3ncc(Cl)cn3)ccc2F)N=C(N)OCC12CC2 [Example 44, 5-Chloro-pyrimidine-2-carboxylic acid [3-((S)-6-amino-8-methyl-5-oxa-7-aza-spiro[2.5]oct-6-en-8-yl)-4-fluoro-phenyl]-amide]
34 | 91 | COc1ccc(C(=O)Nc2ccc(F)c([C@@]3(C)N=C(N)OCC34CC4)c2)nc1 [Example 39]
35 | 210 | C[C@]1(c2cc(NC(=O)c3ccc(OC(F)F)cn3)ccc2F)N=C(N)OCC12CC2 [Example 42, 5-Difluoromethoxy-pyridine-2-carboxylic acid [3-((S)-6-amino-8-methyl-5-oxa-7-aza-Spiro[2.5]oct-6-en-8-yl)-4-fluoro-phenyl]-amide]
